US20240180900A1, “COMPOUNDS AND METHODS FOR THE TARGETED DEGRADATION OF ANDROGEN RECEPTOR” (Arvinas Operations, Inc., priority 2022, published 2024)
Where “and” joins values, the source holds several entries; their conditions need not be identical. Equal entries are not always repeated. Where two headings read alike, the source gives them in different places.

Experiments:
[1] = tested on: receptors, ion channels, transporters, and enzymes; assay: selectivity screening panel of 44 targets: other targets; format: binding; conditions: 1 μM; interaction = effect greater than 50% of positive control
Method: Compound A was tested at 1 μM in a screening study to assess the interaction of Compound A with a panel of 44 targets, including receptors, ion channels, transporters, and enzymes. Any effect greater than 50% of the positive control for a target was considered to represent an interaction of the test compound with the target.

AR H875Y/T878A = target: T1, AR H875Y/T878A (Homo sapiens, UniProt P10275, H875Y/T878A); assay: AR degradation in T-Rex-293 cell line, H875Y/T878A; format: cell-based; conditions: T-Rex-293, ELISA
T1 construct: expressed in transfected cells; host or cells: T-REx-293
T1 sequence (P10275 whole entry H875Y/T878A): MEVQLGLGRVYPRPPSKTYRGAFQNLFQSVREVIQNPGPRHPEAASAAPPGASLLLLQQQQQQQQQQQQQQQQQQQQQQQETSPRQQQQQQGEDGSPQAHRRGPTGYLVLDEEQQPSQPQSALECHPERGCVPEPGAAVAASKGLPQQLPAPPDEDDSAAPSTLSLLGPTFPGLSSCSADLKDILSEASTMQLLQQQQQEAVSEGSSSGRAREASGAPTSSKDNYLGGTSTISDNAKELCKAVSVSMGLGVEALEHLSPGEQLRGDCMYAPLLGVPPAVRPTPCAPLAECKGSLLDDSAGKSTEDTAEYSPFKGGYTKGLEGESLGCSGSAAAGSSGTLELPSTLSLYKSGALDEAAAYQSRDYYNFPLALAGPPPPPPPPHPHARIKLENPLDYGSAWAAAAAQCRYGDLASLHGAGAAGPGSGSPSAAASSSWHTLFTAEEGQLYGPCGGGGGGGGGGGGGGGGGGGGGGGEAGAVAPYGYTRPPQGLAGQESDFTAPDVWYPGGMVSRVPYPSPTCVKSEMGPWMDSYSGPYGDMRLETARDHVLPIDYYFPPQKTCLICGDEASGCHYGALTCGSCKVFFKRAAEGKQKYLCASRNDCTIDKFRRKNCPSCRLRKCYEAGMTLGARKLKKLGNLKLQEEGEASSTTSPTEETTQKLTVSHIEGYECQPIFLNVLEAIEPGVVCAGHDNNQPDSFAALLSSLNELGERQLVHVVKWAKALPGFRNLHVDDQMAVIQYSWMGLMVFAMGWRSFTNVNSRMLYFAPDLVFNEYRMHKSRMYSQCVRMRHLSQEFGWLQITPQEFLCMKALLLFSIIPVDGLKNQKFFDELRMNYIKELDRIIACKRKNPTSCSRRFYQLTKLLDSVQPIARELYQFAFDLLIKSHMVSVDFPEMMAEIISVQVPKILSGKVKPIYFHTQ
Source text: (§1) FIG. 3 is a graph showing Compound A's ability to degrade clinically relevant mutated forms AR.
(§2) To assess the ability of Compound A to degrade variants of the AR, vectors expressing wild-type AR or mutant AR proteins harboring clinically observed mutations in the ligand binding domain (13 with single amino acid changes or 4 with 2 amino acid changes) (Azad A. A., Volik S. V., Wyatt A. W., et al. Androgen receptor gene aberrations in circulating cell-free DNA: biomarkers of therapeutic resistance in castration-resistant prostate cancer. Clin Cancer Res. 2015; 21:2315-2324; Robinson D., Van Allen E. M., Wu Y. M., et al. Integrative clinical genomics of advanced prostate cancer. Cell. 2015; 161:1215-1228; Ledet E. M., Lilly M. B., Sonpavde G., et al. Comprehensive analysis of AR alterations in circulating tumor DNA from patients with advanced prostate cancer. Oncologist.

AR W742C = target: T2, AR W742C (Homo sapiens, UniProt P10275, W742C); assay: AR degradation in T-Rex-293 cell line, W742C; format: cell-based; conditions: T-Rex-293, ELISA
T2 construct: expressed in transfected cells; host or cells: T-REx-293
T2 sequence (P10275 whole entry W742C): as the sequence (P10275 whole entry H875Y/T878A) above, with W742C, Y875H, A878T counted along it
Source text: as §1, §2

VCaP cells = assay: apoptosis in VCaP cells (CaspaseGlo); format: cell-based; conditions: Homo sapiens, CSS + 0.1 nM R1881, 72 hours, read-out: EC50, inducing apoptosis
Method: Intracellular prostate specific antigen (PSA) levels were determined using a PSA enzyme-linked immunosorbent assay (ELISA). […] The cell proliferation was determined using the CellTiter-Glo® assay. […] The CaspaseGlo® assay was carried out to measure the level of apoptosis in cells.
To evaluate the pharmacological effect of Compound A in vitro, PSA, cell proliferation, and apoptosis assays were carried out in VCaP cells.

[2] = food/PPI effect on single-dose PK in healthy volunteers (phase 1); format: in vivo, human; conditions: for CL/F: read-out: CL/F_Obs, Geometric Mean (Geometric CV %) (converted); for Vd/F: read-out: Vz/F, Geometric Mean (Geometric CV %)
Method: The primary endpoints were AUCinf and Cmax. Additional parameters measured included AUClast and Tmax.
This phase 1, open-label study included a crossover, fed/fasted cohort and a fixed-sequence PPI cohort. For the fed/fasted cohort, healthy male volunteers received a single oral dose of Compound A 200 mg in a fasted state during treatment A and in a fed state, following a high-calorie/high-fat meal, during treatment B. Participants were randomized to a dosing sequence of treatments AB or BA. For the PPI cohort, a single oral dose of Compound A 300 mg was administered alone in a fed state during treatment C, and during treatment D, participants received esomeprazole 40 mg for 5 days prior to a single oral dose of Compound A 300 mg on day 5 in a fed state. Participants were assigned to a fixed-dosing sequence of treatments CD. There was a 24-day washout period between Compound A treatments. PK blood samples were collected predose and at selected times up to 312 hours post-Compound A dose. Primary endpoints were area under the plasma concentration-time curve from the time of dosing extrapolated to infinity (AUCinf) and maximum plasma concentration (Cmax) of Compound A. Secondary endpoints included additional PK parameters and safety and tolerability.
The effect of food and a PPI on the PK of Compound A was evaluated in healthy participants. PK results are presented in Tables 2 and 3 and are summarized here.

VCaP tumor xenograft = assay: castrated mouse VCaP xenograft model, tumor growth inhibition; format: in vivo; conditions: castrated mice
Method: Treatment groups (n=10 per group) were compared by one-way analysis of variance (ANOVA). Note: ns: not significant, *: p≤0.05, **: p≤0.01, ***: p≤0.001.
The anti-tumor growth effects of Compound A in vivo were evaluated in the castrated mouse VCaP xenograft model. Briefly, 6- to 8-week-old male CB17/scid mice were implanted with 3×10^6 VCaP tumor cells in the flank region. Once the tumors reached a volume of approximately 100 mm^3, the mice were surgically castrated.

AR M750T = target: T3, AR M750T (Homo sapiens, UniProt P10275, M750T); assay: AR degradation in T-Rex-293 cell line, M750T; format: cell-based; conditions: T-Rex-293, ELISA
T3 construct: expressed in transfected cells; host or cells: T-REx-293
T3 sequence (P10275 whole entry M750T): as the sequence (P10275 whole entry H875Y/T878A) above, with M750T, Y875H, A878T counted along it
Source text: as §1, §2

[3] = 200 mg, fed (test) vs fasted (reference)
[4] = 300 mg, fed, esomeprazole 40 mg
[5] = male, human, plasma, oral, 40 mg Esomeprazole + 300 mg
[6] = male, human, plasma, oral, 200 mg, Fasted
[7] = male, human, plasma, oral, 200 mg, Fed
[8] = male, human, plasma, oral, 300 mg, 300 mg Alone

In the case of `COc1cc(O[C@H]2C(C)(C)[C@H](NC(=O)c3ccc(N4CCC(CN5CCN(c6ccc(C(=O)N[C@H]7CCC(=O)NC7=O)c(F)c6)CC5)CC4)cc3)C2(C)C)ccc1C#N` [Compound A, 4-(4-((1-(4-(((1R,3R)-3-(4-cyano-3-methoxyphenoxy)-2,2,4,4-tetramethylcyclobutyl)carbamoyl)phenyl)piperidin-4-yl)methyl)piperazin-1-yl)-N—((S)-2,6-dioxopiperidin-3-yl)-2-fluorobenzamide], the “interaction with any other target of the panel of 44 targets” value [1] is reported as “No interaction with any other target was identified”, the DC50 (AR H875Y/T878A) is reported as 7.7 nM and the DC50 (AR W742C) is reported as 2.7 nM. The EC50 (VCaP cells) was 8 nM, the “delay of median Tmax, fed vs fasted” value ([2]; 200 mg single oral dose) was “≈ 4 hours” and the “AUCinf Geometric LS Mean Ratio (fed/fasted), relative bioavailability” value [2, 3] was 306.34% and 306.3%. For the same compound, the “AUClast Geometric LS Mean Ratio (fed/fasted), relative bioavailability” value [2, 3] was 313.03% and 313.0%, the “Cmax Geometric LS Mean Ratio (fed/fasted), relative bioavailability” value [2, 3] was 394.46% and 394.5% and the “AUCinf Geometric LS Mean Ratio (with esomeprazole/alone)” value ([2]; 300 mg, fed) was 89.2%. For the same compound, the “AUClast Geometric LS Mean Ratio (with esomeprazole/alone)” value ([2]; 300 mg, fed) was 88.1%, the “Cmax Geometric LS Mean Ratio (with esomeprazole/alone)” value ([2]; 300 mg, fed) was 80.16% and 80.2% and the “reduction in AUCinf with esomeprazole vs Compound A alone” value [2, 4] was roughly 11%. For the same compound, the “reduction in Cmax with esomeprazole vs Compound A alone” value [2, 4] was “≈ 20% and ~20%”, the “effect of esomeprazole on Compound A exposure” value ([2]; 300 mg, moderate-fat fed conditions) was “small effect, but not clinically significant” and the “increase of extent of systemic exposure (AUCinf), fed vs fasted” value ([2]; high fat meal vs fasted, humans) was 3.1 fold and ~3 fold. It also gave an AUC(0-inf) ([2]; male, human, plasma, oral, 40 mg Esomeprazole + 300 mg, read-out: AUCinf-Obs, Geometric Mean (Geometric CV %)) of 9720 ng·h/mL, an AUC(0-t) ([2]; male, human, plasma, oral, 40 mg Esomeprazole + 300 mg, read-out: AUClast, Geometric Mean (Geometric CV %)) of 9370 ng·h/mL and a CL/F [2, 5] of 515 mL/min. The Cmax ([2]; male, human, plasma, oral, 40 mg Esomeprazole + 300 mg, read-out: Cmax, Geometric Mean (Geometric CV %)) was 117 ng/mL, the half-life ([2]; male, human, plasma, oral, 40 mg Esomeprazole + 300 mg, read-out: T1/2, Geometric Mean (Geometric CV %) (converted)) was 65.5 h and the Tmax ([2]; male, human, plasma, oral, 40 mg Esomeprazole + 300 mg, read-out: Tmax) was 10 h. For the same compound, the Vd/F [2, 5] was 2920 L, the AUC(0-inf) ([2]; male, human, plasma, oral, 200 mg, 200 mg alone, fasted, read-out: AUCinf, Geometric LS Mean) was 3460 ng·h/mL and the AUC(0-t) ([2]; male, human, plasma, oral, 200 mg, 200 mg alone, fasted, read-out: AUClast, Geometric LS Mean) was 3300 ng·h/mL. The Cmax ([2]; male, human, plasma, oral, 200 mg, 200 mg alone, fasted, read-out: Cmax, Geometric LS Mean) was 36 ng/mL, the AUC(0-inf) ([2]; male, human, plasma, oral, 200 mg, 200 mg alone, fed, read-out: AUCinf, Geometric LS Mean) was 10600 ng·h/mL and the AUC(0-t) ([2]; male, human, plasma, oral, 200 mg, 200 mg alone, fed, read-out: AUClast, Geometric LS Mean) was 10300 ng·h/mL. For the same compound, the Cmax ([2]; male, human, plasma, oral, 200 mg, 200 mg alone, fed, read-out: Cmax, Geometric LS Mean) was 142 ng/mL, the AUC(0-inf) ([2]; male, human, plasma, oral, 200 mg, Fasted, read-out: AUCinf-Obs, Geometric Mean (Geometric CV %)) was 3460 ng·h/mL and the AUC(0-t) ([2]; male, human, plasma, oral, 200 mg, Fasted, read-out: AUClast, Geometric Mean (Geometric CV %)) was 3300 ng·h/mL. It also gave a CL/F [2, 6] of 964 mL/min, a Cmax ([2]; male, human, plasma, oral, 200 mg, Fasted, read-out: Cmax, Geometric Mean (Geometric CV %)) of 36.1 ng/mL and a half-life ([2]; male, human, plasma, oral, 200 mg, Fasted, read-out: T1/2, Geometric Mean (Geometric CV %) (converted)) of 65.3 h. It also gave a Tmax ([2]; male, human, plasma, oral, 200 mg, Fasted, read-out: Tmax) of 7.75 h, a Vd/F [2, 6] of 5450 L and an AUC(0-inf) ([2]; male, human, plasma, oral, 200 mg, Fed, read-out: AUCinf-Obs, Geometric Mean (Geometric CV %)) of 10600 ng·h/mL. The AUC(0-t) ([2]; male, human, plasma, oral, 200 mg, Fed, read-out: AUClast, Geometric Mean (Geometric CV %)) was 10300 ng·h/mL, the CL/F [2, 7] was 315 mL/min and the Cmax ([2]; male, human, plasma, oral, 200 mg, Fed, read-out: Cmax, Geometric Mean (Geometric CV %)) was 142 ng/mL. The half-life ([2]; male, human, plasma, oral, 200 mg, Fed, read-out: T1/2, Geometric Mean (Geometric CV %) (converted)) was 58.7 h, the Tmax ([2]; male, human, plasma, oral, 200 mg, Fed, read-out: Tmax) was 12 h and the Vd/F [2, 7] was 1600 L. For the same compound, the AUC(0-inf) ([2]; male, human, plasma, oral, 200 mg, fasted, read-out: AUCinf) was 3460 ng·h/mL, the AUC(0-inf) ([2]; male, human, plasma, oral, 200 mg, fed (high-fat meal), read-out: AUCinf) was 10600 ng·h/mL and the half-life ([2]; male, human, plasma, oral, 200 mg, under both fed and fasted conditions, read-out: mean T1/2) was 60 to 76 h. For the same compound, the Tmax ([2]; male, human, plasma, oral, 300 mg with esomeprazole 40 mg, fed, read-out: median Tmax) was 10 h, the AUC(0-inf) ([2]; male, human, plasma, oral, 300 mg, 300 mg Alone, read-out: AUCinf-Obs, Geometric Mean (Geometric CV %)) was 10900 ng·h/mL and the AUC(0-t) ([2]; male, human, plasma, oral, 300 mg, 300 mg Alone, read-out: AUClast, Geometric Mean (Geometric CV %)) was 10600 ng·h/mL. For the same compound, the CL/F [2, 8] was 459 mL/min, the Cmax ([2]; male, human, plasma, oral, 300 mg, 300 mg Alone, read-out: Cmax, Geometric Mean (Geometric CV %)) was 146 ng/mL and the half-life ([2]; male, human, plasma, oral, 300 mg, 300 mg Alone, read-out: T1/2, Geometric Mean (Geometric CV %) (converted)) was 58.4 h. The Tmax ([2]; male, human, plasma, oral, 300 mg, 300 mg Alone, read-out: Tmax) was 7 h, the Vd/F [2, 8] was 2320 L and the AUC(0-inf) ([2]; male, human, plasma, oral, 300 mg, 300 mg alone, fed, read-out: AUCinf, Geometric LS Mean) was 10900 ng·h/mL. It also gave an AUC(0-t) ([2]; male, human, plasma, oral, 300 mg, 300 mg alone, fed, read-out: AUClast, Geometric LS Mean) of 10600 ng·h/mL, a Cmax ([2]; male, human, plasma, oral, 300 mg, 300 mg alone, fed, read-out: Cmax, Geometric LS Mean) of 146 ng/mL and a Tmax ([2]; male, human, plasma, oral, 300 mg, 300 mg alone, fed, read-out: median Tmax) of 7 h. For the same compound, the AUC(0-inf) ([2]; male, human, plasma, oral, 300 mg, 300 mg with esomeprazole, fed, read-out: AUCinf, Geometric LS Mean) was 9720 ng·h/mL, the AUC(0-t) ([2]; male, human, plasma, oral, 300 mg, 300 mg with esomeprazole, fed, read-out: AUClast, Geometric LS Mean) was 9370 ng·h/mL and the Cmax ([2]; male, human, plasma, oral, 300 mg, 300 mg with esomeprazole, fed, read-out: Cmax, Geometric LS Mean) was 117 ng/mL. The delay of median Tmax with esomeprazole ([2]; male, human, plasma, oral, 300 mg, fed) was 3 h, the Tmax ([2]; male, human, plasma, po, 200 mg, 200 mg single oral dose, fasted, read-out: median Tmax) was 7.75 h and the Tmax ([2]; male, human, plasma, po, 200 mg, 200 mg single oral dose, fed (high-fat meal), read-out: median Tmax) was 12 h. For the same compound, the “TGI relative to vehicle control” value (VCaP tumor xenograft; 0.1 mg/kg/day QD for 24 days, statistically insignificant) was 45%, the “TGI relative to vehicle control” value (VCaP tumor xenograft; 0.3 mg/kg/day QD for 24 days, statistically insignificant) was 49% and the “TGI relative to vehicle control” value (VCaP tumor xenograft; 1 mg/kg/day QD for 24 days) was 81%. The “TGI relative to vehicle control” value (VCaP tumor xenograft; 3 mg/kg/day QD for 24 days, oral gavage) was 100% and the DC50 (AR M750T) was 0.6 nM.
